Results from ChEMBL document CHEMBL5604063, “ASAP - DENV-2 NS2B-NS3 protease fluorescence dose response” (2024).
Values joined by “and” are separate entries in the source; they are usually repeats but may differ in a detail not shown here. Equal entries are not always repeated.

Molecular target: Genome polyprotein (dengue virus type 2, UniProt P29990)
Assay type: functional, Thailand/16681/1984

Chain of Genome polyprotein (P29990 1346-1475 limits assumed): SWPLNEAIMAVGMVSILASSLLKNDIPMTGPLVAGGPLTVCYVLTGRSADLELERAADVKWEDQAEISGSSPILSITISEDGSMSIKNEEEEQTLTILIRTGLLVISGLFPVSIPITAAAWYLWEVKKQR
Chain of Genome polyprotein (P29990 1476-2093 limits assumed): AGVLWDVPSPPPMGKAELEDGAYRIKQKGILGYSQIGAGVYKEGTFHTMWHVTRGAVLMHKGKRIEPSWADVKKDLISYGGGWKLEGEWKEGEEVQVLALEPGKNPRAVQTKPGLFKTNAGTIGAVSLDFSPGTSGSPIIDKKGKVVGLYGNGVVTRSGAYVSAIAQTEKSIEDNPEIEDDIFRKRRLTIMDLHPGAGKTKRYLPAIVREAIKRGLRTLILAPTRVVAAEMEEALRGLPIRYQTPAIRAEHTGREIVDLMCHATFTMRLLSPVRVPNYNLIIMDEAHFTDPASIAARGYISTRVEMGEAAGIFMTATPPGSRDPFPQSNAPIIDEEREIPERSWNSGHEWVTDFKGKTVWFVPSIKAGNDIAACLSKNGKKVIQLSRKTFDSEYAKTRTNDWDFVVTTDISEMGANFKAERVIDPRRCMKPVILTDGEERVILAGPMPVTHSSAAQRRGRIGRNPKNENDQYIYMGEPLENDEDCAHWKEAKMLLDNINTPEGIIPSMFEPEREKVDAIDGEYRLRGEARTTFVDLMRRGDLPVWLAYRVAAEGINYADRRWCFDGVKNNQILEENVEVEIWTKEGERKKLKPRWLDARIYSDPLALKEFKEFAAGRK

SMILES | IC50
Cc1ncsc1C(=O)N[C@H](C(=O)Nc1cccc(CN)c1)c1ccc(OCc2ccccc2)cc1 | > 99.5 µM
CCn1nc(C)c(CN(C)Cc2ccc3c(c2)CCNCC3)c1C | > 99.5 µM
CCc1cc(F)ccc1CC(=O)N1CCCc2cc(CCN)ccc21 | > 99.5 µM
O=C(O)c1cc(Cl)ccc1NS(=O)(=O)c1ccc(OCc2ccncc2)cc1 | > 99.5 µM
Cc1noc(C)c1C(=O)N[C@@H](C(=O)Nc1cccc(CN)c1)c1ccc(OCc2ccccc2)cc1 | > 99.5 µM
O=C(NCCO)c1cc(Cl)ccc1NS(=O)(=O)c1ccc(Oc2ccccc2Cl)cc1 | 68 µM
Cn1cc(C(=O)N[C@@H](C(=O)Nc2cccc(CN)c2)c2ccc(OCc3ccccc3)cc2)cn1 | > 99.5 µM
NCc1cccc(NC(=O)[C@H](NC(=O)C2CCC2)c2ccc(OCc3ccccc3)cc2)c1 | > 99.5 µM
N[C@H]1CCc2cc(-c3ccn(-c4ccccc4)n3)ccc2C1 | > 99.5 µM
O=C(O)c1cc2c(cc1NS(=O)(=O)c1ccc(F)cc1)CCC2 | > 99.5 µM
CCc1ccccc1COc1ccc(S(=O)(=O)Nc2ccc(Cl)cc2C(=O)O)cc1 | 6.5 µM
NCc1cccc(NC(=O)C[C@H](NC(=O)OCc2ccccc2)c2ccc(OC(F)(F)F)cc2)c1 | 42.9 µM and 44.6 µM
Cc1ccc(F)c2c1CCN(Cc1ccn(C3CNC3)c1)C2 | > 99.5 µM
COc1ccc(CNC(=O)[C@@H](NC(=O)OCc2ccccc2)c2ccc(OCc3ccccc3)cc2)cn1 | > 99.5 µM
N[C@]12CCC[C@](C(=O)NCc3ccc4c(c3)CCNCC4)(CC1)C2 | > 99.5 µM
NCc1cccc(NC(=O)C[C@H](NC(=O)OCc2ccccc2)c2ccc(Cl)c(Br)c2)c1 | 22.8 µM and 22.9 µM and 12.9 µM and 12.6 µM
CCn1nccc1-c1cccc([C@@H](NC(=O)OCc2ccccc2)C(=O)Nc2cccc(CN)c2)c1 | > 99.5 µM
CC(C)(C)c1cc(N2CCN(c3cccc4[nH]ncc34)CC2)nc(C(=O)O)n1 | > 99.5 µM
NCCNC(=O)c1cc(Cl)ccc1NS(=O)(=O)c1ccc(Oc2ccccc2Cl)cc1 | > 99.5 µM
O=C(N[C@@H](C(=O)NCc1cn[nH]c1)c1ccc(OCc2ccccc2)cc1)OCc1ccccc1 | > 99.5 µM
O=C(O)c1cc(Cl)ccc1NS(=O)(=O)c1ccc(OCc2nnnn2C2CCC2)cc1 | > 99.5 µM
NCc1cccc(NC(=O)[C@H](NC(=O)OCc2ccccc2)c2ccc(Br)c(Cl)c2)c1 | 11 µM and 8.42 µM and 6.79 µM and 9.88 µM and 12.5 µM and 8.05 µM
NCc1cccc(NC(=O)[C@H](NC(=O)OCc2ccccc2)c2ccc(Br)c(F)c2)c1 | 88.2 µM
O=C(O)c1cc(Cl)ccc1NS(=O)(=O)c1ccc(OCc2cncnc2)cc1 | > 99.5 µM

SMILES | IC50
Cc1cccnc1COc1ccc(S(=O)(=O)Nc2ccc(Cl)cc2C(=O)O)cc1 | > 99.5 µM
O=C(N[C@@H](C(=O)NCc1cnccn1)c1ccc(OCc2ccccc2)cc1)OCc1ccccc1 | > 99.5 µM
O=C(O)c1cc(Cl)ccc1NS(=O)(=O)c1ccc(NC2CCNCC2)nc1 | > 99.5 µM
N#Cc1c(C(F)F)cccc1N1CCC(n2ncc(N)c2C(F)(F)F)CC1 | > 99.5 µM
CCn1c(=O)c(N2C[C@H]3C[C@@]3(C(F)F)C2)nc2ccccc21 | > 99.5 µM
Cc1cc(F)cc(N(C)C(=O)c2ccc(C3(CN)CC3)cc2)c1 | > 99.5 µM
NCc1cccc(NC(=O)[C@H]2[C@H]3CCCC[C@H]3[C@@H]2NC(=O)OCc2ccccc2)c1 | 95.5 µM
N[C@H]1CC[C@H](NC(=O)[C@@H](NC(=O)OCc2ccccc2)c2ccc(OCc3ccccc3)cc2)CC1 | > 99.5 µM
NCc1ccnc(CNC(=O)[C@@H](NC(=O)OCc2ccccc2)c2ccc(OCc3ccccc3)cc2)c1 | > 99.5 µM
Cc1n[nH]cc1CC(=O)N1CCCC12CCN(C(=O)c1ccnc(CO)c1)CC2 | > 99.5 µM
NCc1cccc(NC(=O)C[C@H](NC(=O)OCc2ccccc2)c2ccc(Cl)c(F)c2)c1 | 97.6 µM
CC[C@H]1CN(C(=O)c2ccc(C3(CN)CC3)cc2)Cc2ccccc21 | > 99.5 µM
Cn1cnc2c1CN(Cc1ccc3c(c1)CCNCC3)CC2 | > 99.5 µM
CCn1c(=O)c(N2CC[C@H](N3CCCC3=O)C2)nc2ccccc21 | > 99.5 µM
CCn1c(=O)c(N2CC[C@H](c3cnccn3)C2)nc2ccccc21 | > 99.5 µM
NCc1cccc(NC(=O)[C@@H]2Cc3ccc(OCc4ccccc4)cc3CN2C(=O)OCc2ccccc2)c1 | 86.7 µM
NCC1(c2ccc(C(=O)N3CCc4scc(Br)c4C3)cc2)CC1 | > 99.5 µM
NCc1cccc(CNC(=O)[C@@H](NC(=O)OCc2ccccc2)c2ccc(OCc3ccccc3)cc2)n1 | > 99.5 µM
NCCc1ccc(CNC(=O)[C@@H](NC(=O)OCc2ccccc2)c2ccc(OCc3ccccc3)cc2)cc1 | 21.2 µM and 21.7 µM
NCCCc1ccc(C(=O)N2CC(c3cccc(Br)c3)C2)cc1 | > 99.5 µM
NCc1cccc(NC(=O)[C@]2(NC(=O)OCc3ccccc3)COc3cc(Br)ccc32)c1 | > 99.5 µM
Cc1ccc(CNC(=O)[C@@H](NC(=O)OCc2ccccc2)c2ccc(OCc3ccccc3)cc2)cn1 | > 99.5 µM
NCc1cccc(NC(=O)[C@@H](NC(=O)c2cccnc2)c2ccc(OCc3ccccc3)cc2)c1 | > 99.5 µM
CCn1c(=O)c(N2C[C@H]3COC[C@@]3(C)C2)nc2ccccc21 | > 99.5 µM

SMILES | IC50
CC(C)CNC(=O)c1cc(Cl)ccc1C=Cc1ccc(Oc2ccccc2Cl)cc1 | > 99.5 µM
NCc1ccc(CNC(=O)[C@@H](NC(=O)OCc2ccccc2)c2ccc(OCc3ccccc3)cc2)cc1 | 16 µM and 8.53 µM and 8.03 µM
NCc1ccccc1C1CCN(C(=O)[C@@]23CNC[C@]2(C(F)(F)F)C3)CC1 | > 99.5 µM
CCn1c(=O)c(N2CC[C@H](c3ccccc3)C2)nc2ccccc21 | > 99.5 µM
CCOC(=O)c1cc(C(=O)N[C@H](C(=O)Nc2cccc(CN)c2)c2ccc(OCc3ccccc3)cc2)n(C)n1 | 24.3 µM and 24.8 µM
Cc1occ(C(F)(F)F)c1C(=O)N[C@H](C(=O)Nc1cccc(CN)c1)c1ccc(OCc2ccccc2)cc1 | > 99.5 µM
O=C(N[C@H](C(=O)NCc1ccccc1CO)c1ccc(OCc2ccccc2)cc1)OCc1ccccc1 | > 99.5 µM
NCc1cccc(NC(=O)[C@H](NC(=O)c2ccccc2Cl)c2ccc(OCc3ccccc3)cc2)c1 | 45.8 µM
O=C(NC1CCCCC1)c1cc(Cl)ccc1NS(=O)(=O)c1ccc(Oc2ccccc2Cl)cc1 | 13.7 µM
NCc1cccc(NC(=O)[C@@H](NC(=O)OCc2ccccc2)c2ccc(OCc3ncccn3)cc2)c1 | > 99.5 µM
NCc1cccc(NC(=O)[C@H]2[C@H]3CCCCC[C@H]3[C@H]2NC(=O)OCc2ccccc2)c1 | 23.2 µM and 34.2 µM and 10.4 µM and 9.2 µM and 8.71 µM
Cc1cc(-c2cccc([C@@H](NC(=O)OCc3ccccc3)C(=O)Nc3cccc(CN)c3)c2)ccn1 | > 99.5 µM
NCc1cccc(NC(=O)[C@H]2c3ccc(Br)cc3OCCN2C(=O)OCc2ccccc2)c1 | > 99.5 µM
NC[C@H]1CC[C@@H](CNC(=O)[C@@H](NC(=O)OCc2ccccc2)c2ccc(OCc3ccccc3)cc2)CC1 | 85.6 µM
CS(=O)(=O)NCc1cccc(CNC(=O)[C@@H](NC(=O)OCc2ccccc2)c2ccc(OCc3ccccc3)cc2)c1 | > 99.5 µM
C[C@@H](O)c1cccc(N2CCC(c3nc(N)ncc3F)CC2)n1 | > 99.5 µM
NCc1cccc(NC(=O)[C@H](NC(=O)OCc2ccccc2)c2ccc(CO)cc2)c1 | > 99.5 µM
NCc1cccc(NC(=O)[C@H](NS(=O)(=O)c2ccc(Oc3ccccc3Cl)cc2)c2ccc(OCc3ccccc3)cc2)c1 | > 99.5 µM
CCCCCN(C)C(=O)c1cc(Cl)ccc1NS(=O)(=O)c1ccc(Oc2ccccc2Cl)cc1 | 17.8 µM
Cc1ccc([C@H]2[C@H](C)CN2C(=O)c2ccc(C(F)(F)CN)cc2)cc1 | > 99.5 µM
CN(C)CCc1ccc(CNC(=O)[C@@H](NC(=O)OCc2ccccc2)c2ccc(OCc3ccccc3)cc2)cc1 | > 99.5 µM
O=C(N[C@H](C(=O)NCc1cccc(CO)n1)c1ccc(OCc2ccccc2)cc1)OCc1ccccc1 | > 99.5 µM
O=C(O)c1ccc(F)c(F)c1NS(=O)(=O)c1ccc(Oc2ccccc2Cl)cc1 | 31.1 µM
O=C(N[C@@H](C(=O)NCc1cccc2c1CCNC2)c1ccc(OCc2ccccc2)cc1)OCc1ccccc1 | 53.5 µM

SMILES | IC50
O=C(N[C@H](C(=O)NCc1cccc(CO)c1)c1ccc(OCc2ccccc2)cc1)OCc1ccccc1 | > 99.5 µM
C[C@@H](NC(=O)C1CCN(c2cccc(C(N)=O)n2)CC1)[C@H]1CCCNC1 | > 99.5 µM
CCn1c(=O)c(N2C[C@H](O)C3(CC3)C2)nc2ccccc21 | > 99.5 µM
CCc1n[nH]cc1-c1cccc([C@H](NC(=O)OCc2ccccc2)C(=O)Nc2cccc(CN)c2)c1 | > 99.5 µM
CCn1c(=O)c(N2C[C@@H]3[C@H](C2)[C@H]2CC[C@@H]3O2)nc2ccccc21 | > 99.5 µM
NCc1cccc(NC(=O)[C@H]2[C@H]3CCC[C@H]3[C@@H]2NC(=O)OCc2ccccc2)c1 | > 99.5 µM
NCc1cccc(NC(=O)C[C@H](NC(=O)OCc2ccccc2)c2ccc(C(F)(F)F)cc2)c1 | 58.1 µM
O=C(O)c1c(F)cc(F)cc1NS(=O)(=O)c1ccc(Oc2ccccc2Cl)cc1 | 41.5 µM
NC[C@H]1CC[C@H](NC(=O)[C@@H](NC(=O)OCc2ccccc2)c2ccc(OCc3ccccc3)cc2)CC1 | > 99.5 µM
CCN(CC(=O)NC)C(=O)c1cc(Cl)ccc1NS(=O)(=O)c1ccc(Oc2ccccc2Cl)cc1 | 70 µM
N[C@@H](Cc1c[nH]cn1)C(=O)N1CCC2(CC1)OCCc1cc(O)ccc12 | > 99.5 µM
CN(C)CCNC(=O)[C@H](NC(=O)OCc1ccccc1)c1ccc(OCc2ccccc2)cc1 | > 99.5 µM
NCc1ccc2c(c1)CCC[C@H]2NCc1cc(Cl)cc2c1OCC2 | > 99.5 µM
NCc1cccc(NC(=O)C[C@H](NC(=O)OCc2ccccc2)C2CCCCC2)c1 | 67.1 µM and 69.7 µM
O=C(N[C@@H](C(=O)NCC1CCNCC1)c1ccc(OCc2ccccc2)cc1)OCc1ccccc1 | > 99.5 µM
NCc1cccc(NC(=O)[C@H](NC(=O)Cn2cccn2)c2ccc(OCc3ccccc3)cc2)c1 | > 99.5 µM
NC[C@H]1CC[C@H](CNC(=O)[C@@H](NC(=O)OCc2ccccc2)c2ccc(OCc3ccccc3)cc2)CC1 | > 99.5 µM
C[C@]1(C(=O)N[C@H](C(=O)Nc2cccc(CN)c2)c2ccc(OCc3ccccc3)cc2)CCCO1 | > 99.5 µM
CCn1ccnc(N2CC(=O)[C@@H](c3c[nH]c4ccccc34)C2)c1=O | > 99.5 µM
O=S(=O)(Nc1ccc(Cl)cc1CN(CC1CC1)CC1CC1)c1ccc(Oc2ccccc2Cl)cc1 | 67.1 µM
O=C(NCc1nnn[nH]1)c1cc(Cl)ccc1NS(=O)(=O)c1ccc(Oc2ccccc2Cl)cc1 | 64.5 µM
NCc1cccc(NC(=O)C[C@H](NC(=O)OCc2ccccc2)c2ccc(Br)cc2)c1 | 51.8 µM
NCc1ccc(-c2ccc(OCC3CCNCC3)nc2-c2ccc(-c3ccoc3)cc2)cc1 | 67.1 µM
